Patent US7842808B2, “Anti-migraine spirocycles” (Bristol-Myers Squibb Company, priority 2002, dated 2010)

Legend:
[1] = molecular target: T1, human CGRP receptor (SK-N-MC cells) (Homo sapiens, UniProt O60894+Q16602); assay: Schild analysis of CGRP stimulated cAMP production; assay type: cell-based; conditions: for slope: Schild plot slope; for Kb: Schild analysis, dissociation constant of the antagonist, read-out: Kb
T1 construct: SK-N-MC cells that endogenously express the human CGRP receptor; endogenous in cells; host or cells: SK-N-MC cells
Experimental: Functional Antagonism. Antagonism of the compounds of invention was determined by measuring the formation of cyclic AMP (adenosine 3′5′-cyclic monophosphate) in SK-N-MC cells that endogenously express the human CGRP receptor. CGRP receptor complex is coupled with Gs protein and CGRP binding to this complex leads to the cyclic AMP production via Gs—dependent activation of an adenylate cyclase (Juaneda C et al., TiPS, 2000; 21:432-438; incorporated by reference herein). Consequently, CGRP receptor antagonists inhibit CGRP-induced cyclic AMP formation in SK-N-MC cells (Doods H et al., Br J Pharmacol, 2000; 129(3):420-423); incorporated by reference herein). For cyclic AMP measurements SK-N-MC cells were incubated with 0.3 nM CGRP alone or in the presence of various concentrations of the compounds of invention for 30 min at room temperature. Compounds of invention were pre-incubated with SK-N-MC cells for 15 min before the addition of CGRP to allow receptor occupancy (Edvinsson et al., Eur J Pharmacol, 2001, 415:39-44; incorporated by reference herein). Cyclic AMP was extracted using the lysis reagent and its concentration was determined by radioimmunoassay using RPA559 cAMP SPA Direct Screening Assay Kit (Amersham Pharmacia Biotech). IC50 values were calculated using Excel fit.
Schild Analysis. Schild analysis can be used to characterize the nature of antagonism of the compounds of invention. The dose response of CGRP stimulated cAMP production was generated either with CGRP alone, or in the presence of various concentrations of compounds of invention. The antagonist dose is plotted as X against the dose ratio (defined as IC50 of agonist with the presence of the compounds divided by the IC50 of the agonist alone) minus 1 as Y. Linear regression was then performed with both X and Y axis log-transformed. […] Kb is the dissociation constant of the antagonist.

[2] = system: human cerebral vessels (CGRP-induced dilation); assay: Ex Vivo Human Cerebral Artery Assay, reversal of CGRP-induced relaxation; conditions: reversal of 1 nM hCGRP-induced relaxation, vessels pre-contracted with 10 mM KCl
Description: Rationale and Overview. To provided direct evidence of the ability for novel compounds to reverse CGRP-induced dilation in human cerebral vessels, an ex vivo assay was design. Briefly, isolated vessel rings were mounted in a tissue bath where vessels were pre-contracted with potassium chloride (KCl) and fully dilated with hCGRP, then this relaxation was reversed by the cumulative addition of CGRP-receptor antagonists (complete details follow).
Tissue Samples. Autopsy samples of human arteries were obtained from vendors (ABS Inc. or NDRI). All vessels were transported on ice-cold HEPES buffer (composition in mM: NaCl 130, KCl 4, KH2PO4 1.2, MgSO4 1.2, CaCl2 1.8, Glucose 6, NaHCO3 4, HEPES 10, EDTA 0.025). Upon receipt, the vessels were placed in cold Kreb's buffer (composition in mM: NaCl 118.4, KCl 4.7, KH2PO4 1.2, MgSO4 1.2, CaCl2 1.8, Glucose 10.1, NaHCO3 25) saturated with carbogen (5% CO2 and 95% oxygen).
Isolated Tissue Baths. The vessels were cleaned of connective tissues and cut into cylindrical segments of 4-5 mm in length. The vessels were then mounted in tissue baths between two stainless steel hooks; one of which is fixed and the other of which was connected to a force displacement transducer. The vessel tension was continuously recorded using a data acquisition system (Powerlab, ADInstruments, Mountain View, Calif.) connected to the transducer. The tissue baths containing Krebs buffer and mounted vessels were temperature (37° C.) and pH (7.4) controlled with continuous bubbling of carbogen. The artery segments were allowed to equilibrate for about 30-45 min until a stable resting tone was achieved. Prior to the assay, vessels were primed (conditioned) with 100 mM KCl and subsequently washed. The vessels were pre-contracted with 10 mM KCl and fully dilated with 1 nM hCGRP. Concentration-response curves to CGRP-receptor antagonists were performed by the cumulative addition of drugs in half log units in fully dilated vessels. At each concentration, the effects of the drugs were expressed as % reversal of CGRP-induced relaxation in each vessel. The actual assay and data analysis were performed for each vessel individually, fitting the concentration-response data to a four parameter logistic function by non-linear regression analysis, to estimate the EC50 values.

[3] = system: CGRP-induced increase in laser Doppler facial blood flow; assay: Non-terminal laser Doppler facial blood flow model in non-human primate; assay type: in vivo, common marmoset (Callithrix jacchus); conditions: for % Inhibition of CGRP-induced increase in laser Doppler facial blood flow: iv, CGRP 10 μg/kg; for inhibition of CGRP-induced increase in laser Doppler facial blood flow (in words): delivered prior to hαCGRP (pre-treatment)
Description: Overview. […] Non-human primates (e.g., marmosets) are the only animals known to have human-like CGRP receptor pharmacology conferred by the presence of the specific amino acid residue (Trp74) in their RAMP1 sequence which is responsible for the phenotype of the human receptor (Mallee et al. J Biol Chem 2002 277:14294). […] Peptide and small-molecule CGRP-receptor antagonists were used to validate the non-human primate model.
Animals. Adult male and female common marmosets (Callithrix jacchus) purchased from Harlan and weighing 350-550 g served as subjects. Other mammals endogenously expressing RAMP1 having Trp 74 or transgenic mammals with humanized RAMP1 having Trp 74 can also be employed in A compound described herein.
Anesthesia & Surgical Preparation. Animals are anesthetized by isoflurane inhalation in an induction chamber (4-5% rapid induction, maintained with 1-2.5%; Solomon et al., 1999). Anesthesia is maintained by delivering a constant supply of air:oxygen (50:50) and isoflurane via face mask, or by intubation and ventilation (with blood gas monitoring). Body temperature is maintained at 38±0.5° C. by placement on an automated temperature controlled surface with rectal probe. A small area of fur (approx. 1.5 cm square) is removed from one or both sides of the face by application of a depilatory cream and/or shaving. Surgical areas are clipped and prepared with betadine. An i.v. line is placed in any accessible vein for the administration of test compounds and CGRP-receptor agonist and, if needed, withdrawal of blood samples (max 2.5 ml, 10%) for blood gas monitoring and content analysis. A solution of 5% dextrose is administered i.v. in order to maintain blood sugar levels. Anesthesia depth is monitored by measuring blood pressure and heart rate using a non-invasive arm cuff method and a pulse oximeter, respectively. Guanethidine 5-10 mg/kg i.v., supplemented with 5 mg/kg i.v. as needed, may be given to stabilize the peak flux in facial blood flow seen with repeated stimulation-induced changes in blood flow (Escott et al., 1999; incorporated by reference herein). Microvascular blood flow is monitored by attaching a self adhesive laser Doppler flow probe to the facial skin.
Compound Administration Test compounds may be administered i.v. (0.01-5 ml/kg), i.m. (0.01-0.5 ml/kg), s.c. (0.01-5 ml/kg) or p.o. (0.1-10 ml/kg) (Diehl et al., 2001; incorporated by reference herein). CGRP-receptor agonists may be delivered i.v. (0.01-5 ml/kg), i.d. (10-100 μl/site) or s.c. (10-100 μl/site).

[4] = molecular target: T2, CGRP receptor (SK-N-MC cell membranes) (Homo sapiens, UniProt O60894+Q16602); assay: CGRP Binding Assay ([125I]-CGRP radioligand binding, SK-N-MC homogenate); conditions: displacement of [125I]-CGRP, SK-N-MC homogenate; read-out: CGRP binding IC50
T2 construct: endogenous in cells; host or cells: SK-N-MC cells (membrane homogenate)

[5] = molecular target: T1, human CGRP receptor (SK-N-MC cells); assay: Cyclic AMP Assay, functional antagonism of CGRP-induced cyclic AMP formation; assay type: cell-based; conditions: SK-N-MC cells, 0.3 nM CGRP; read-out: cAMP Function IC50
Outline: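 SK-N-MC cells, which endogenously express human CGRP receptor, stimulated with 0.3 nM CGRP with or without compound for 30 min at room temperature. Cellular cAMP extracted by lysis and quantified by SPA radioimmunoassay; IC50 from inhibition of CGRP-induced cAMP.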

T1 sequence (Q16602 23-461): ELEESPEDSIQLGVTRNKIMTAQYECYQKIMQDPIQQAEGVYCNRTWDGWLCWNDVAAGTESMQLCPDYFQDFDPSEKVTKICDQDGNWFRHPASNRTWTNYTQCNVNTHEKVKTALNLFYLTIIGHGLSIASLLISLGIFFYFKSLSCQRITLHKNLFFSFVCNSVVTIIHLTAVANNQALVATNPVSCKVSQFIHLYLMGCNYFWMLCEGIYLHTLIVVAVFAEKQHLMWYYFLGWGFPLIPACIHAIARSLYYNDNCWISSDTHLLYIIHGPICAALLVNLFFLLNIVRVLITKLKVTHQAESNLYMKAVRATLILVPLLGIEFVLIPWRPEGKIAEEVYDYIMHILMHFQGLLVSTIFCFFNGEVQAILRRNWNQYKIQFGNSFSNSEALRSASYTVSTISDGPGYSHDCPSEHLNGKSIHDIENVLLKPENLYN
T1 sequence (O60894 27-148): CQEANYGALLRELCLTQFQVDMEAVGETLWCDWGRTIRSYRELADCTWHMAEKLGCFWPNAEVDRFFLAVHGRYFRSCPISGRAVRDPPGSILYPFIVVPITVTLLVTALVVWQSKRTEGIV
T2 sequence (Q16602 23-461): as the sequence (Q16602 23-461) above
T2 sequence (O60894 27-148): as the sequence (O60894 27-148) above

slope [1] | EC50 [2] | IC50 [4] | IC50 [5] | Kb [1] | Molecule | % Inhibition of CGRP-induced increase in laser Doppler facial blood flow ([3]; 0.01 mg/kg) | % Inhibition of CGRP-induced increase in laser Doppler facial blood flow ([3]; 0.03 mg/kg) | % Inhibition of CGRP-induced increase in laser Doppler facial blood flow ([3]; 0.1 mg/kg) | % Inhibition of CGRP-induced increase in laser Doppler facial blood flow ([3]; 0.3 mg/kg) | % Inhibition of CGRP-induced increase in laser Doppler facial blood flow ([3]; 1 mg/kg) | inhibition of CGRP-induced increase in laser Doppler facial blood flow (in words) [3]
0.94 | < 10 nM | – | – | – | O=C(N[C@H](Cc1ccc2[nH]ncc2c1)C(=O)N1CCC(N2CCCCC2)CC1)N1CCC(N2Cc3ccccc3NC2=O)CC1 [Example 2, (R)-4-(2-Oxo-1,4-dihydro-2H-quinazolin-3-yl)-piperidine-1-carboxylic acid[2-[1,4′]bipiperidinyl-1′-yl-1-(1H-indazol-5-ylmethyl)-2-oxo-ethyl]-amide] | W (W≦25%) | X (25%<X≦50%) | X (25%<X≦50%) | Y (50%<Y≦75%) | Z (Z>75%) | dose-dependently inhibits
0.93 | < 10 nM | – | – | – | O=C(NC(Cc1ccc2[nH]ncc2c1)C(=O)N1CCC(N2CCCCC2)CC1)N1CCC(N2Cc3ccccc3NC2=O)CC1 (racemic) [Example 6, (±)-4-(2-Oxo-1,4-dihydro-2H-quinazolin-3-yl)-piperidine-1-carboxylic acid[2-[1,4′]bipiperidinyl-1′-yl-1-(1H-indazol-5-ylmethyl)-2-oxo-ethyl]-amide] | – | – | – | – | Z (Z>75%) | –
1.2 | < 10 nM | < 10 nM | < 10 nM | 0.018 nM | O=C(NC(Cc1cc(Cl)c2[nH]ncc2c1)C(=O)N1CCC(N2CCCCC2)CC1)N1CCC(N2Cc3ccccc3NC2=O)CC1 (racemic) [Example 43, (±)-4-(2-Oxo-1,4-dihydro-2H-quinazolin-3-yl)-piperidine-1-carboxylic acid[2-[1,4′]bipiperidinyl-1′-yl-1-(7-chloro-1H-indazol-5-ylmethyl)-2-oxo-ethyl]-amide] | – | – | – | – | – | –
– | – | – | – | – | hαCGRP(8-37): "the peptide antagonist hαCGRP(8-37)" [reference compound] | – | – | – | – | Z (Z>75%) | dose-dependently inhibited
0.96 | 10 to 100 nM | 10 to 100 nM | 10 to 100 nM | 55 nM | O=C(NC(Cc1ccc2[nH]ccc2c1)C(=O)N1CCC(N2CCCCC2)CC1)N1CCC(n2c(=O)[nH]c3ccccc32)CC1 (racemic) [Example 3, (±)-4-(2-Oxo-2,3-dihydro-benzoimidazol-1-yl)-piperidine-1-carboxylic acid[2-[1,4′]bipiperidinyl-1′-yl-1-(1H-indol-5-ylmethyl)-2-oxo-ethyl]-amide] | – | – | – | – | – | –
